Laboratory results: patent US9717222B2, “Taste independent brain nutrient sensor that mediates hunger” (New York University, priority 2014, dated 2017)
Entries after “also recorded” stand apart in the source; their conditions may differ.

How the values were obtained:
hemolymph glycemia = assay: Prandial rise of hemolymph glycemia after glucose feeding with or without phlorizin; assay type: in vivo, Drosophila melanogaster; conditions: 18-hour starved flies fed 100 mM glucose with 10 mM phlorizin for 20 minutes (FIG. 1b)
Description: Glycogen and glycemia were measured as previously described^6. For the prandial rise of hemolymph glycemia, flies were starved for 18 hours, and then fed with 100 mM glucose (with or without 10 mM phlorizin) for 15-20 minutes. Their hemolymph was immediately collected and measured.

Drosophila melanogaster = assay: Two-choice feeding assay (food preference); assay type: in vivo; conditions: for food choice: 200 mM L-glucose+phlorizin versus 50 mM D-glucose+phlorizin: 18 hours food deprivation (FIG. 4); for food choice: glucose mixed with phlorizin versus plain agar: 100 mM glucose
Description: Feeding assays were performed as previously described^6 using 50 flies per two-choice arena. Briefly, ˜50 4-8 days old male flies were starved in an empty vial with wet Kim wipe for 5 or 18 hours, and then given a choice between two sugars, or a sugar and plain agar for 2 hours. Food preference was determined as percent preference index (PI %) by scoring the abdomen color of each fly: % PI=(#eaten food1+0.5×#eaten both)−(#eaten food2+0.5×#eaten both)]/(total #flies eaten) All sugars, except for L-glucose (Carbosynth), were from Sigma. For FIG. 1c, 10 mM phlorizin (Sigma) was added to warm agar with or without sugar. For the experiments in the dark, individual plates were wrapped in aluminum foil and then placed in a dark drawer while tested flies were making a choice between the two substrates. For the neural silencing experiments, flies bearing UAS-Kir2.1, Ptubulin-GAL80^ts, and a GAL4 driver were treated as described^17. These flies were raised at 18° C., incubated at 29° C. for 40 hours, starved at 29° C. for next 18 hrs and then tested in the two-choice assay at room temperature. For a negative control, the flies were raised and starved at 18° C., and tested at room temperature. Because metabolism is slower at 18° C. than at 25-29° C., the flies at 18° C. needed to be starved for a longer period. Thus, we determined that the 18 hours of starvation at 25-29° C. is equivalent to the 50-60 hours of starvation at 18° C. Also, see FIG. 11.

Compound: O=C(CCc1ccc(O)cc1)c1c(O)cc(O)cc1O[C@@H]1O[C@H](CO)[C@@H](O)[C@H](O)[C@H]1O [Phlorizin]
- prandial rise in hemolymph glycemia (hemolymph glycemia): preventing a prandial rise in glycemia
- food choice: 200 mM L-glucose+phlorizin versus 50 mM D-glucose+phlorizin (Drosophila melanogaster; control flies): chose the more concentrated (sweeter) L-glucose; also recorded: chose the sweeter L-glucose
- food choice: glucose mixed with phlorizin versus plain agar (Drosophila melanogaster; control poxnΔM22-B5;SuperA158, 18 h food deprived, 10 mM phlorizin (FIG. 1c)): can distinguish glucose mixed with phlorizin from agar
- food choice: 200 mM L-glucose+phlorizin versus 50 mM D-glucose+phlorizin (Drosophila melanogaster; taste-blind (poxnΔM22-B5) and sugar-blind (Gr5a;Gr64a) mutants): failed to discriminate between Lglucose+phlorizin and D-glucose+phlorizin; also recorded: showed equal preference for these two enantiomers
- food choice: fructose mixed with phlorizin versus plain agar (Drosophila melanogaster; taste-blind poxnΔM22-B5, 18 h food deprived, 100 mM fructose, 10 mM phlorizin (FIG. 1c)): able to detect the nutritional value of fructose mixed with phlorizin
- food choice: glucose mixed with phlorizin versus plain agar (Drosophila melanogaster; taste-blind poxnΔM22-B5, 18 h food deprived, 10 mM phlorizin (FIG. 1c)): failed to consume glucose mixed with phlorizin
